Data as given in ChEMBL document CHEMBL3046568, “Synthesis, antimicrobial and DNA cleavage studies of some 4-aryloxymethylcoumarins obtained by reaction of 4-bromomethylcoumarins with bidentate nucleophiles” (2012).
Values after ≈ are worked out from the molar mass of the structure shown. Active and inactive are the calls of the source. The calls are words filed in the database; no cut-off is given here.

Experiments:
Enterococcus faecalis = test: Antibacterial activity against Enterococcus faecalis MTCC 3382 after 24 hr by disk diffusion method; format: functional; details: for MIC: Enterococcus faecalis, MTCC 3382, 24 h
Aspergillus niger [1] = test: Induction of Aspergillus niger DNA cleavage at 50 ug after 2 hr by agarose gel electrophoresis
Escherichia coli [2] = test: Induction of Escherichia coli MTCC 1089 DNA cleavage at 50 ug after 2 hr by agarose gel electrophoresis
Staphylococcus aureus [3] = test: Induction of Staphylococcus aureus MTCC 3160 DNA cleavage at 50 ug after 2 hr by agarose gel electrophoresis
Fusarium oxysporum = test: Antifungal activity against Fusarium oxysporum after 3 to 4 days by serial dilution method; format: functional; details: for MIC: Fusarium oxysporum
Mucor fuscus = test: Antifungal activity against Mucor fuscus after 3 to 4 days by serial dilution method; format: functional; details: for MIC: Mucor fuscus
Penicillium chrysogenum = test: Antifungal activity against Penicillium chrysogenum after 3 to 4 days by serial dilution method; format: functional; details: for MIC: Penicillium chrysogenum
Aspergillus niger [4] = test: Antifungal activity against Aspergillus niger after 3 to 4 days by serial dilution method; format: functional; details: for MIC: Aspergillus niger
Candida albicans = test: Antifungal activity against Candida albicans after 3 to 4 days by serial dilution method; format: functional; details: for MIC: Candida albicans
Aspergillus fumigatus = test: Antifungal activity against Aspergillus fumigatus after 3 to 4 days by serial dilution method; format: functional; details: for MIC: Aspergillus fumigatus
Escherichia coli [5] = test: Antibacterial activity against Escherichia coli MTCC 1089 after 24 hr by disk diffusion method; format: functional; details: for MIC: Escherichia coli, MTCC 1089, 24 h
Klebsiella pneumoniae = test: Antibacterial activity against Klebsiella pneumoniae MTCC 3384 after 24 hr by disk diffusion method; format: functional; details: for MIC: Klebsiella pneumoniae, MTCC 3384, 24 h
Pseudomonas aeruginosa = test: Antibacterial activity against Pseudomonas aeruginosa MTCC 1034 after 24 hr by disk diffusion method; format: functional; details: for MIC: Pseudomonas aeruginosa, MTCC 1034, 24 h
Bacillus subtilis = test: Antibacterial activity against Bacillus subtilis MTCC 297 after 24 hr by disk diffusion method; format: functional; details: for MIC: Bacillus subtilis, MTCC 297, 24 h
Staphylococcus aureus [6] = test: Antibacterial activity against Staphylococcus aureus MTCC 3160 after 24 hr by disk diffusion method; format: functional; details: for MIC: Staphylococcus aureus, MTCC 3160, 24 h

SMILES | inhibition zone (IZ) (Enterococcus faecalis) [mm] | MIC (Enterococcus faecalis) [µg/mL] | Activity (Aspergillus niger [1]) | Activity (Escherichia coli [2]) | Activity (Staphylococcus aureus [3]) | MIC (Fusarium oxysporum) [µg/mL] | inhibition zone (IZ) (Mucor fuscus) [mm] | MIC (Mucor fuscus) [µg/mL] | inhibition zone (IZ) (Penicillium chrysogenum) [mm] | MIC (Penicillium chrysogenum) [µg/mL] | inhibition zone (IZ) (Aspergillus niger [4]) [mm] | MIC (Aspergillus niger [4]) [µg/mL] | inhibition zone (IZ) (Candida albicans) [mm] | MIC (Candida albicans) [µg/mL] | inhibition zone (IZ) (Aspergillus fumigatus) [mm] | MIC (Aspergillus fumigatus) [µg/mL] | MIC (Escherichia coli [5]) [µg/mL] | inhibition zone (IZ) (Klebsiella pneumoniae) [mm] | inhibition zone (IZ) (Pseudomonas aeruginosa) [mm] | MIC (Pseudomonas aeruginosa) [µg/mL] | other results
O=c1cc(COc2cccc(OCc3cc(=O)oc4c3ccc3ccccc34)c2)c2ccc3ccccc3c2o1 | 12 | 25 (≈ 47.5 µM) | inactive | inactive | inactive | 25 (≈ 47.5 µM) | 14 | 25 (≈ 47.5 µM) | 14 | 25 (≈ 47.5 µM) | 15 | 12.5 (≈ 23.7 µM) | 13 | 12.5 (≈ 23.7 µM) | 15 | 12.5 (≈ 23.7 µM) | 25 (≈ 47.5 µM) | 16 | 17 | 12.5 (≈ 23.7 µM) | inhibition zone (IZ) (Fusarium oxysporum): 14 mm; inhibition zone (IZ) (Escherichia coli [5]): 12 mm; MIC (Klebsiella pneumoniae): 6.25 µg/mL (≈ 11.9 µM); inhibition zone (IZ) (Bacillus subtilis): 11 mm; MIC (Bacillus subtilis): 25 µg/mL (≈ 47.5 µM); inhibition zone (IZ) (Staphylococcus aureus [6]): 11 mm; MIC (Staphylococcus aureus [6]): 25 µg/mL (≈ 47.5 µM)
O=c1cc(COc2cccc(O)c2)c2c(ccc3ccccc32)o1 | 14 | 12.5 (≈ 39.3 µM) | inactive | inactive | inactive | 25 (≈ 78.5 µM) | 13 | 25 (≈ 78.5 µM) | 16 | 25 (≈ 78.5 µM) | 17 | 12.5 (≈ 39.3 µM) | 14 | 12.5 (≈ 39.3 µM) | 15 | 12.5 (≈ 39.3 µM) | 25 (≈ 78.5 µM) | 15 | 18 | 12.5 (≈ 39.3 µM) | inhibition zone (IZ) (Fusarium oxysporum): 12 mm; inhibition zone (IZ) (Escherichia coli [5]): 12 mm; MIC (Klebsiella pneumoniae): 12.5 µg/mL (≈ 39.3 µM); inhibition zone (IZ) (Bacillus subtilis): 12 mm; MIC (Bacillus subtilis): 25 µg/mL (≈ 78.5 µM); inhibition zone (IZ) (Staphylococcus aureus [6]): 11 mm; MIC (Staphylococcus aureus [6]): 25 µg/mL (≈ 78.5 µM)
CC(=O)Nc1cccc(OCc2cc(=O)oc3ccc(Br)cc23)c1 | 18 | 6.25 (≈ 16.1 µM) | Active | Active | Active | 25 (≈ 64.4 µM) | 19 | 6.25 (≈ 16.1 µM) | 20 | 6.25 (≈ 16.1 µM) | 20 | 6.25 (≈ 16.1 µM) | 16 | 12.5 (≈ 32.2 µM) | 20 | 6.25 (≈ 16.1 µM) | 12.5 (≈ 32.2 µM) | 18 | 22 | 6.25 (≈ 16.1 µM) | inhibition zone (IZ) (Fusarium oxysporum): 13 mm; inhibition zone (IZ) (Escherichia coli [5]): 14 mm; MIC (Klebsiella pneumoniae): 6.25 µg/mL (≈ 16.1 µM); inhibition zone (IZ) (Bacillus subtilis): 17 mm; MIC (Bacillus subtilis): 6.25 µg/mL (≈ 16.1 µM); inhibition zone (IZ) (Staphylococcus aureus [6]): 17 mm; MIC (Staphylococcus aureus [6]): 6.25 µg/mL (≈ 16.1 µM)
Cc1ccc2oc(=O)cc(COc3cccc(OCc4cc(=O)oc5ccc(C)cc45)c3)c2c1 | 16 | 12.5 (≈ 27.5 µM) | inactive | inactive | inactive | > 100 | 16 | 12.5 (≈ 27.5 µM) | 16 | 25 (≈ 55 µM) | 17 | 12.5 (≈ 27.5 µM) | 9 | 25 (≈ 55 µM) | 17 | 12.5 (≈ 27.5 µM) | > 100 | 12 | 13 | 25 (≈ 55 µM) | MIC (Klebsiella pneumoniae): 12.5 µg/mL (≈ 27.5 µM); inhibition zone (IZ) (Bacillus subtilis): 14 mm; MIC (Bacillus subtilis): 12.5 µg/mL (≈ 27.5 µM); inhibition zone (IZ) (Staphylococcus aureus [6]): 14 mm; MIC (Staphylococcus aureus [6]): 12.5 µg/mL (≈ 27.5 µM)
CCN(CC)c1cccc(OCc2cc(=O)oc3ccc(C)cc23)c1 | 17 | 6.25 (≈ 18.5 µM) | inactive | inactive | inactive | 50 (≈ 148 µM) | 16 | 12.5 (≈ 37 µM) | 17 | 12.5 (≈ 37 µM) | 18 | 12.5 (≈ 37 µM) | 10 | 25 (≈ 74.1 µM) | 16 | 12.5 (≈ 37 µM) | 50 (≈ 148 µM) | 13 | 15 | 25 (≈ 74.1 µM) | inhibition zone (IZ) (Fusarium oxysporum): 9 mm; inhibition zone (IZ) (Escherichia coli [5]): 10 mm; inhibition zone (IZ) (Bacillus subtilis): 14 mm; MIC (Bacillus subtilis): 12.5 µg/mL (≈ 37 µM); inhibition zone (IZ) (Staphylococcus aureus [6]): 15 mm; MIC (Staphylococcus aureus [6]): 12.5 µg/mL (≈ 37 µM)
CC(=O)Nc1cccc(OCc2cc(=O)oc3cc(C)ccc23)c1 | 14 | 12.5 (≈ 38.7 µM) | inactive | inactive | inactive | 50 (≈ 155 µM) | 16 | 12.5 (≈ 38.7 µM) | 18 | 12.5 (≈ 38.7 µM) | 19 | 6.25 (≈ 19.3 µM) | 9 | 25 (≈ 77.3 µM) | 16 | 12.5 (≈ 38.7 µM) | 25 (≈ 77.3 µM) | 14 | 16 | 12.5 (≈ 38.7 µM) | inhibition zone (IZ) (Fusarium oxysporum): 9 mm; inhibition zone (IZ) (Escherichia coli [5]): 10 mm; MIC (Klebsiella pneumoniae): 12.5 µg/mL (≈ 38.7 µM); inhibition zone (IZ) (Bacillus subtilis): 15 mm; MIC (Bacillus subtilis): 12.5 µg/mL (≈ 38.7 µM); inhibition zone (IZ) (Staphylococcus aureus [6]): 14 mm; MIC (Staphylococcus aureus [6]): 12.5 µg/mL (≈ 38.7 µM)
O=c1cc(COc2cccc(O)c2)c2cc(Br)ccc2o1 | 18 | 6.25 (≈ 18 µM) | Active | Active | Active | 25 (≈ 72 µM) | 18 | 12.5 (≈ 36 µM) | 19 | 6.25 (≈ 18 µM) | 21 | 6.25 (≈ 18 µM) | 17 | 6.25 (≈ 18 µM) | 18 | 12.5 (≈ 36 µM) | 12.5 (≈ 36 µM) | 19 | 23 | 6.25 (≈ 18 µM) | inhibition zone (IZ) (Fusarium oxysporum): 13 mm; inhibition zone (IZ) (Escherichia coli [5]): 15 mm; MIC (Klebsiella pneumoniae): 6.25 µg/mL (≈ 18 µM); inhibition zone (IZ) (Bacillus subtilis): 17 mm; MIC (Bacillus subtilis): 6.25 µg/mL (≈ 18 µM); inhibition zone (IZ) (Staphylococcus aureus [6]): 19 mm; MIC (Staphylococcus aureus [6]): 6.25 µg/mL (≈ 18 µM)
